Key:
MST1 [1] = molecular target: T1, MST1 (Homo sapiens, UniProt Q13043); experiment: LanthaScreen Eu kinase binding assay (HTS and dose response); parameters: purchased ThermoFisher; conditions: 1 μM; positive control
T1 sequence (Q13043 1-487): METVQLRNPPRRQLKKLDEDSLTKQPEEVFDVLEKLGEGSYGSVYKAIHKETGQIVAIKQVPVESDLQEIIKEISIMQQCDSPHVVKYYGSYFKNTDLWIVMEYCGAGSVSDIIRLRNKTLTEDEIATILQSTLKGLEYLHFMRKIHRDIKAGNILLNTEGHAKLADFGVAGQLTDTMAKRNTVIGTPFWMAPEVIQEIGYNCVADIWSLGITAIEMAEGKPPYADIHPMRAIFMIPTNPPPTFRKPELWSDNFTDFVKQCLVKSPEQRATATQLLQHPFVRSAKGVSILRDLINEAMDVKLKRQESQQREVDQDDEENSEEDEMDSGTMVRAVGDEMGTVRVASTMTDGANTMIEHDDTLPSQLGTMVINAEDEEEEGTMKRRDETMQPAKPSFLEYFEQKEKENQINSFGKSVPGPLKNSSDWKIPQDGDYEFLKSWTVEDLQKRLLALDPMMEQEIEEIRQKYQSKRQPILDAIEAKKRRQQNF
Procedure: A total of 39 hits were selected for 9-point dose response confirmation in triplicate, starting at 1 μM followed by 1:5 serial dilution.
Compounds in 1000× DMSO stock solution were dispensed by using Echo555 liquid dispensing system (Labcyte, CA) to 1536-well microplate (Corning, NY). Kinase buffer A (ThermoFisher, MA) was prepared and added to each well. […] Each reagent was added to the microplate in equal volume.

MST1–LATS2 signaling [2] = experiment: Western blot of YAP-S127 phosphorylation (MST1/LATS2 overexpression); conditions: 10 μM, last 24 h
MST family members = tested on: MST family members; parameters: method as in PMID 22037378; conditions: cited from earlier work
MST1 [3] = molecular target: T1, MST1; experiment: Biochemical kinase dose response (Suppl. Fig. 5); conditions: concentrations up to 10 μM
MST1 [4] = molecular target: T2, MST1 (Rattus norvegicus, UniProt A0A8I6A0F8); experiment: CETSA assay; format: cell-based; conditions: 5 μM, 2 h, INS-1E, 55 °C
T2 construct: endogenous in cells; host or cells: INS-1E (rat beta-cell line)
Procedure: Thereafter, cells were pelleted at 200 g for 4 min and resuspended in PBS supplemented with phosphatase and protease inhibitor cocktail at the cell density of 3 Mill./100 µl. Each cell suspension was distributed into five 0.2-ml PCR tubes with 100 µl of cell suspension per tube. PCR tubes were heated at their designated temperature (43–55 °C) on a thermal cycler for 3 min, incubated at room temperature for 3 min, and snap-frozen in liquid nitrogen. Cell lysates were prepared by freezing–thawing the samples in liquid nitrogen twice, and soluble MST1 was detected by western blot analysis.

MST1–LATS2 signaling [5] = experiment: LATS-BS in vitro luciferase assay (MST1/LATS2 overexpression)
From the text: Therefore a LATS-BS construct has been generated with fusion of YAP fragment and 14-3-3 with N-terminal and C-terminal firefly luciferase fragments (N-luc and C-luc), respectively that assesses LATS kinase activity by measuring the interaction between pS127-YAP and 14-3-3[35] in a MST1–LATS2-phosphorylation-dependent manner (Fig. 4a).
As internal transfection control, pRL-Renilla luciferase control reporter vector (Promega) was co-transfected into each sample. […] Luciferase signal was calculated based on the ratio of luciferase activity of LATS-BS to control reporter vector.

INS-1E cells = experiment: Western blot of pMST1, caspase-3/PARP cleavage, PDX1, BIM under diabetogenic conditions; format: cell-based, rat; conditions: 10 μM, 24 h
Procedure: . pThr183), caspase-3 and PARP cleavage, PDX1, tubulin, and actin were analyzed by western blotting. Representative Western blots and pooled quantitative densitometry analysis are shown from three independent cell line experiments (n = 3). […]; all by Student’s t tests.
. pThr183), caspase-3 and PARP cleavage, and BIM and actin were analyzed by western blotting. Representative Western blots (b) and pooled quantitative densitometry analysis (c) are shown from 3–6 independent culture dishes (n = 3–6). […]; all by Student’s t tests.
Human islets were isolated from eight pancreases of nondiabetic organ donors at PRODO Labs and at Lille University and cultured on extracellular matrix-coated dishes (Novamed, Jerusalem, Israel)[62] or on Biocoat Collagen I coated dishes (#356400, Corning, ME, USA). […] The clonal rat β-cell line INS-1E was kindly provided by Dr. Claes Wollheim, Geneva & Lund University. Human islets were cultured in complete CMRL-1066 (Invitrogen) medium at 5.5 mM glucose, mouse islets and INS-1E cells at complete RPMI-1640 medium at 11.1 mM glucose. […] . Palmitic acid (Sigma) was dissolved at 10 mmol/l in RPMI-1640 medium containing 11% fatty acid–free bovine serum albumin (BSA) (Sigma) under an N2-atmosphere and added to the culture at 0.5 mM[64]. […] . Isolated human islets or INS-1E cells were infected with adenovirus carrying LacZ as control or MST1 or LATS2 (all Vector Biolabs), at a multiplicity of infection of 100 (human islets) or 20 (INS-1E) for 4 h[11]. Adenovirus was subsequently washed off with PBS and replaced by fresh medium with 10% FBS and the respective analysis performed after 48 h post infection.

MST2 = MST2 (Homo sapiens, UniProt Q13188); experiment: Biochemical kinase dose response (Suppl. Fig. 2, 5); conditions: concentrations up to 10 μM
[6] = tested on: mouse model of liver and intestine injury; parameters: method as in PMID 27535619; conditions: cited from earlier work

Sequence of MST2 (Q13188 whole entry, species assumed): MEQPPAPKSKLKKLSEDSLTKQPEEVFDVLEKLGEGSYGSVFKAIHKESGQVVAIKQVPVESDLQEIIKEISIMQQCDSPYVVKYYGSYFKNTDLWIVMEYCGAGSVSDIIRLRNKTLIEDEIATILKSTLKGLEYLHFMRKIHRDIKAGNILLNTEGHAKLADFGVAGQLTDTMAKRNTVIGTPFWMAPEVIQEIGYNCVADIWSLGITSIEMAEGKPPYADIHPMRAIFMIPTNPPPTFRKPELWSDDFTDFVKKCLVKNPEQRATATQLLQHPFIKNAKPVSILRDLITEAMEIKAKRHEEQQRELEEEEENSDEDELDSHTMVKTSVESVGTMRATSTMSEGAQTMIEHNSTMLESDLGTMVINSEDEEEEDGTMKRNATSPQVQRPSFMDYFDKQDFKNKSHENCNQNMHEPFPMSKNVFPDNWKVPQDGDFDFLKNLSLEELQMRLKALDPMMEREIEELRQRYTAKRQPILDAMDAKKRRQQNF
T2 sequence (A0A8I6A0F8 1-487): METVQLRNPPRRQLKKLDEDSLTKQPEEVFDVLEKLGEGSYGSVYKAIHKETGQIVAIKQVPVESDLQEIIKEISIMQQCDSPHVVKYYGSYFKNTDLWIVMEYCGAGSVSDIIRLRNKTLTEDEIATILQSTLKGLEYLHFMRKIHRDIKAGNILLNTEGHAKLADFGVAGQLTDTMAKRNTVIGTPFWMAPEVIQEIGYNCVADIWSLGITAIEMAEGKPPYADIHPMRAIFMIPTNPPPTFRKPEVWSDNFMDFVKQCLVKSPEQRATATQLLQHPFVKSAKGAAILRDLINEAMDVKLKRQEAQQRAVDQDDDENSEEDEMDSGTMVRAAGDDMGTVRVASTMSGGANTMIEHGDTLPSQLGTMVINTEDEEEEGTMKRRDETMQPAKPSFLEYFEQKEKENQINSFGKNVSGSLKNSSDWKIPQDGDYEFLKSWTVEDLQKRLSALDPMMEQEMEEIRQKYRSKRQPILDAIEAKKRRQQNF

SMILES: CN[C@@H]1C[C@H]2O[C@@](C)([C@@H]1OC)n1c3ccccc3c3c4c(c5c6ccccc6n2c5c31)C(=O)NC4 [staurosporine]
- inhibition at 1 µM (MST1 [1]): 100%

SMILES: C=CC(=O)Nc1cc2c(Nc3ccc(F)c(Cl)c3)ncnc2cc1OCCCN1CCOCC1 [canertinib]
- MST1/LATS2-induced YAP-S127 phosphorylation (MST1–LATS2 signaling [2]): had no inhibitory effect
- activity on MST family members (MST family members): without MST family inhibitory activity
- inhibition of MST1 (MST1 [3]): no appreciable inhibition
- thermal stabilization of MST1 in intact cells (MST1 [4]): degradation occurred at the same condition
- MST1/LATS2-induced luciferase activity (LATS-BS) (MST1–LATS2 signaling [5]; 10 μM, last 24 h): had no inhibitory effect
- Firefly/Renilla x1000 (MEAN) (MST1–LATS2 signaling [5]; L2/Mst1 overexpression + 10 μM compound, mean of six dishes): 27.5257
- cleaved caspase-3, cleaved PARP, and BIM under basal conditions (INS-1E cells): significant stimulatory effect
- mitochondrial BIM induction under diabetic conditions (INS-1E cells; HG/Pal): but not the EGFR inhibitor canertinib significantly reduced
- stress-induced MST1 activation and caspase-3 and PARP cleavage (INS-1E cells; HG/Pal): ineffective
- inhibition of MST2 (MST2): no appreciable inhibition

SMILES: CN1C(=O)c2sccc2N(C)c2nc(Nc3ccc(S(N)(=O)=O)cc3)ncc21 [XMU-MP-1]
- effect in mouse model of liver and intestine injury [6]: promotes tissue repair and regeneration
